For assay [1], the target named is Calcium/calmodulin-dependent protein kinase type 1G (Homo sapiens) (UniProt Q96NX5). Nature of the assay: Selectivity interaction (KinomeScan (DiscoverX)) EUB0001619a CAMK1G. Particulars: at 1 µM.
The target of assay [2] is Serine/threonine-protein kinase 3 (Homo sapiens, UniProt Q13188). The assay is described as follows: Selectivity interaction (ADP-Glo kinase assay) EUB0001619a STK3. In general terms: ADP-Glo turns the ADP formed in a reaction into a luminescent signal.
Assay [3] deals with T1, Serine/threonine-protein kinase DCLK2 (Homo sapiens) (UniProt Q8N568).
T1 sequence (whole entry): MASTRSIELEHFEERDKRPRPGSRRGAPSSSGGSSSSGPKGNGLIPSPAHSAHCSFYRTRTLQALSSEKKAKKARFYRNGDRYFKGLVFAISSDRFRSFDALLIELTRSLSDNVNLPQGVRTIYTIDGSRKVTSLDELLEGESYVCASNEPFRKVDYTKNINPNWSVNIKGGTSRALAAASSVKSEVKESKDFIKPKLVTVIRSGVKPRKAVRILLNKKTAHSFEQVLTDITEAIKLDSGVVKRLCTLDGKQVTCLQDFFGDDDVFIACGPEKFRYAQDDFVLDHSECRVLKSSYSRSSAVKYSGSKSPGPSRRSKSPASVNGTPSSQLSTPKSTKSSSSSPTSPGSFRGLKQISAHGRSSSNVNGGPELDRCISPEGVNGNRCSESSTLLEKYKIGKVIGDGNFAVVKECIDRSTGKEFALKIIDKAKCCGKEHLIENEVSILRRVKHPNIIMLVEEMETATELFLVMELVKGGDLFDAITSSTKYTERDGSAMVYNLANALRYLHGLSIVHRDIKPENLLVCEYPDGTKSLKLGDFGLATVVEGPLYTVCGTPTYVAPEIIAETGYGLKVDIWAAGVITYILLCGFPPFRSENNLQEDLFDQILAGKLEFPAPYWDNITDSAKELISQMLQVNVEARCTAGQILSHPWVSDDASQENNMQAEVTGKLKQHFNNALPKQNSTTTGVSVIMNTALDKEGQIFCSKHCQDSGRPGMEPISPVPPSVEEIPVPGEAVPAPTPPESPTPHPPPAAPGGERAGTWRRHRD
The assay is described as follows: Selectivity interaction (KinomeScan (DiscoverX)) EUB0001619a DCLK2. Particulars: at 1 µM.

For assay [4], the target named is Mitogen-activated protein kinase kinase kinase kinase 1 (Homo sapiens) (UniProt Q92918). The assay is described as follows: Selectivity interaction (KinomeScan (DiscoverX)) EUB0000666a MAP4K1. Particulars: at 10 µM.
In assay [5] the target is Serine/threonine-protein kinase PAK 2 (Homo sapiens) (UniProt Q13177). The assay is described as follows: Selectivity interaction (KinomeScan (DiscoverX)) EUB0000666a PAK2. Particulars: at 10 µM.
In assay [6] the target is T2, Atypical kinase COQ8B, mitochondrial (Homo sapiens) (UniProt Q96D53).
T2 sequence (whole entry): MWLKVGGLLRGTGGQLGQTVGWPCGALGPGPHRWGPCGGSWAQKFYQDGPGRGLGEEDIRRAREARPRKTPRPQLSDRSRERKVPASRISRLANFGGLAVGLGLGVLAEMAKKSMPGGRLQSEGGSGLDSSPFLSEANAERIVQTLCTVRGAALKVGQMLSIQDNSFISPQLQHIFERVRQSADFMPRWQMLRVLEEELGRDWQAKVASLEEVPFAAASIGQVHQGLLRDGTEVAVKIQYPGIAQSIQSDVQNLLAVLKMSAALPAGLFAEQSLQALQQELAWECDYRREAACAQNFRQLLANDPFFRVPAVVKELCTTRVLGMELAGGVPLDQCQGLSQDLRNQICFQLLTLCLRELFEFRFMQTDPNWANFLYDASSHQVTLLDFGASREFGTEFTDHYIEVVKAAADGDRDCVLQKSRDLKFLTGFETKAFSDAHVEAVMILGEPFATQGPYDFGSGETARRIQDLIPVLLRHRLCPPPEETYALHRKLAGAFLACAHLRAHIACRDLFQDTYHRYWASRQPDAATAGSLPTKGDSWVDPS
The assay is described as follows: Selectivity interaction (KinomeScan (DiscoverX)) EUB0000666a ADCK4. The following applies: at 10 µM.

The target of assay [7] is Serine/threonine-protein kinase ATR (Homo sapiens) (UniProt Q13535). Nature of the assay: Selectivity interaction (ActivX KiNativ screen (kinase selectivity in THP-1 cell lysates)) EUB0000639a ATR. The following applies: lysate. Format: subcellular.
The next assay addresses Focal adhesion kinase 1 (Homo sapiens, UniProt Q05397). The assay is described as follows: Selectivity interaction (Kinase panel (Invitrogen)) EUB0000639a PTK2. The following applies: at 200 nM.
Assay [8] deals with Non-receptor tyrosine-protein kinase TYK2 (Homo sapiens, UniProt P29597). The assay is described as follows: Selectivity interaction (ProQinase) EUB0000171b TYK2.
In assay [9] the target is Insulin-like growth factor 1 receptor (Homo sapiens, UniProt P08069). Nature of the assay: Selectivity interaction (ProQinase) EUB0000171b IGF1R.
Assay [10] addresses RAC-gamma serine/threonine-protein kinase (Homo sapiens, UniProt Q9Y243). Nature of the assay: Selectivity interaction (ProQinase) EUB0000171b AKT3.
In assay [11] the target is ATPase family AAA domain-containing protein 2 (Homo sapiens) (UniProt Q6PL18). Nature of the assay: Selectivity interaction (Human bromodomain panel (DSF assay)) EUB0000233b ATAD2.
Assay [12] deals with Serine/threonine-protein kinase 32C (Homo sapiens) (UniProt Q86UX6). Nature of the assay: Selectivity interaction (KinomeScan (DiscoverX)) EUB0001079a STK32C. The following applies: at 1 µM.
Assay [13] deals with Tyrosine-protein kinase JAK1 (Homo sapiens, UniProt P23458). Nature of the assay: Selectivity interaction (KinomeScan (DiscoverX)) EUB0000229b JAK1. Particulars: at 10 µM.

Where only a bound is given, the exact number is not on record here.

Sequence of Serine/threonine-protein kinase ATR (Homo sapiens) (Q13535 whole entry, looked up): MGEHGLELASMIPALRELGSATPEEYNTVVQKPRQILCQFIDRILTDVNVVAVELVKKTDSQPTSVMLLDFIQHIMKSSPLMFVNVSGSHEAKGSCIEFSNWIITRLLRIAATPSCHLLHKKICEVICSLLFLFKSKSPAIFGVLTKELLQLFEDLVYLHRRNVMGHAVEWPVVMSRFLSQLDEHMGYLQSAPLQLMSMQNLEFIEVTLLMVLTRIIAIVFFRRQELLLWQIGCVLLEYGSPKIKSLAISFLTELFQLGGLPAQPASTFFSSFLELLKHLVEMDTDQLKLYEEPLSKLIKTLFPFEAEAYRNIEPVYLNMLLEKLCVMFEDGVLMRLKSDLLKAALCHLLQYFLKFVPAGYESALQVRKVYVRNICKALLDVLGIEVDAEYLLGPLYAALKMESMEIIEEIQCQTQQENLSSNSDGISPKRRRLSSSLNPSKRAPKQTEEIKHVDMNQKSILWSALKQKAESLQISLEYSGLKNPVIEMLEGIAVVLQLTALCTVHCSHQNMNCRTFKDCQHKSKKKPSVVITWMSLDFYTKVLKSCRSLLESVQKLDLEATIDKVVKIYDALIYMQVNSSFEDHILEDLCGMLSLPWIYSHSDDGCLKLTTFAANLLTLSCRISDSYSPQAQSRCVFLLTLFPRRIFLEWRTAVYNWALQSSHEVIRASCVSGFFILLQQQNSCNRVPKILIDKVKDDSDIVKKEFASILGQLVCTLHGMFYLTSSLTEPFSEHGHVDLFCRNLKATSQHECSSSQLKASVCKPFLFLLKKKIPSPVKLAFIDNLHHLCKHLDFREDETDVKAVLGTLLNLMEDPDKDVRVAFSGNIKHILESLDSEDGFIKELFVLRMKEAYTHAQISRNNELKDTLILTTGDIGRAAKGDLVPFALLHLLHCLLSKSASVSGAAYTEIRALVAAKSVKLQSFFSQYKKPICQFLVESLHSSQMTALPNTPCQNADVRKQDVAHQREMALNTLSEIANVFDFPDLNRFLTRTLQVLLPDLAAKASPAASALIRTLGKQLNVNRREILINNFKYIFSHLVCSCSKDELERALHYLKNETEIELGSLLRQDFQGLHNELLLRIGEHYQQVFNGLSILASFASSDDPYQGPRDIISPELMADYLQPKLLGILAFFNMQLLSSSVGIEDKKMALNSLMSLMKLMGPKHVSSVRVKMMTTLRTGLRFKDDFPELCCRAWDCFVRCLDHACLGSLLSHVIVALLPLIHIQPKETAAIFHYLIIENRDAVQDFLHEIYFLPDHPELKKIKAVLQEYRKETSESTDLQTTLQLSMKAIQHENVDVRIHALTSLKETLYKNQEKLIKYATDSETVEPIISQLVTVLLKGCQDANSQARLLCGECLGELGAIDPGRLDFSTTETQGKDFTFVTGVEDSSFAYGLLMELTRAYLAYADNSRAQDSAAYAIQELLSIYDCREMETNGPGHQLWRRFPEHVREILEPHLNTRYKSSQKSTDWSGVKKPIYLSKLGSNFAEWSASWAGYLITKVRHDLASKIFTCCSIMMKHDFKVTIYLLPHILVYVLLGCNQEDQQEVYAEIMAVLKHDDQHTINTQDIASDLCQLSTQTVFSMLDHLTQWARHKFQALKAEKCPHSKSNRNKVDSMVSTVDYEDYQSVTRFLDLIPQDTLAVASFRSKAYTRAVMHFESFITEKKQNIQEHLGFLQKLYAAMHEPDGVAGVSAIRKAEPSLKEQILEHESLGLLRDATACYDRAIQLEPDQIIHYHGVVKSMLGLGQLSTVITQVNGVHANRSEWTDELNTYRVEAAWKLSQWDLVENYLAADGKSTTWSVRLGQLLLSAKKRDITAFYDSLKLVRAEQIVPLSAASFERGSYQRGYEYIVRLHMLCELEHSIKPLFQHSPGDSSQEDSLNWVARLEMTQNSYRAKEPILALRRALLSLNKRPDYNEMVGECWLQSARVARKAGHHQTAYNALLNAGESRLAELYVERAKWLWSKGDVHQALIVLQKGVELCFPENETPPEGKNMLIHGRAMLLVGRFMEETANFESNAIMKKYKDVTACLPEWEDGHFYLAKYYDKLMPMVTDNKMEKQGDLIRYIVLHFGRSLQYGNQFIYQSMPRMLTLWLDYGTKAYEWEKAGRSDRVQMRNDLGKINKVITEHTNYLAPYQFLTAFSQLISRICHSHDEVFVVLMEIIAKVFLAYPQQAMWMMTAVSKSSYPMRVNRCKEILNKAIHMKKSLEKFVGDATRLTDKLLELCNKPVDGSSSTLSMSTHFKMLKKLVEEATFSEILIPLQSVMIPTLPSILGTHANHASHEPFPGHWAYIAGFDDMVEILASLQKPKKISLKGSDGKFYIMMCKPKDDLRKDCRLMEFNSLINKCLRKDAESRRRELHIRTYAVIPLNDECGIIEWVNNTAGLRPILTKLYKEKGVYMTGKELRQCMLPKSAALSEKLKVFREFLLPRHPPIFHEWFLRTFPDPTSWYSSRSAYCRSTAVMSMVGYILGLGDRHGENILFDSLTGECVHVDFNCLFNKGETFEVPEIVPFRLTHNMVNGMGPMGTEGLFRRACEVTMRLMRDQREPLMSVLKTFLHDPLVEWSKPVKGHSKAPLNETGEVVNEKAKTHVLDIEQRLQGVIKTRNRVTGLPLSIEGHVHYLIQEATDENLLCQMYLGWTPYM
Sequence of RAC-gamma serine/threonine-protein kinase (Q9Y243 whole entry, the tested form may be a part): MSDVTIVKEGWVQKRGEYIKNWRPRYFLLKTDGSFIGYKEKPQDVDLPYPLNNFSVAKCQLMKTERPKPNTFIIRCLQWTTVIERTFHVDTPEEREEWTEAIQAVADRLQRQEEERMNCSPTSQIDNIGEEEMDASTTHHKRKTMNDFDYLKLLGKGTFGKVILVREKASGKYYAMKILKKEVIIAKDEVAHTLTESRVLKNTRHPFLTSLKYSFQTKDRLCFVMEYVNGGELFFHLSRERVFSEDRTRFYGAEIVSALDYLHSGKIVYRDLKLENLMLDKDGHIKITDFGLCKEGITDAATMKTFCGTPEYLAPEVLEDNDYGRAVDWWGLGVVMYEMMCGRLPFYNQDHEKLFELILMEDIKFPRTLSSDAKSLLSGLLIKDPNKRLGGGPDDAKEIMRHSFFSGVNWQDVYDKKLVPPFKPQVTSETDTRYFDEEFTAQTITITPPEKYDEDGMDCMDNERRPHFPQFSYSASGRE
Sequence of Insulin-like growth factor 1 receptor (P08069 31-736 limits assumed): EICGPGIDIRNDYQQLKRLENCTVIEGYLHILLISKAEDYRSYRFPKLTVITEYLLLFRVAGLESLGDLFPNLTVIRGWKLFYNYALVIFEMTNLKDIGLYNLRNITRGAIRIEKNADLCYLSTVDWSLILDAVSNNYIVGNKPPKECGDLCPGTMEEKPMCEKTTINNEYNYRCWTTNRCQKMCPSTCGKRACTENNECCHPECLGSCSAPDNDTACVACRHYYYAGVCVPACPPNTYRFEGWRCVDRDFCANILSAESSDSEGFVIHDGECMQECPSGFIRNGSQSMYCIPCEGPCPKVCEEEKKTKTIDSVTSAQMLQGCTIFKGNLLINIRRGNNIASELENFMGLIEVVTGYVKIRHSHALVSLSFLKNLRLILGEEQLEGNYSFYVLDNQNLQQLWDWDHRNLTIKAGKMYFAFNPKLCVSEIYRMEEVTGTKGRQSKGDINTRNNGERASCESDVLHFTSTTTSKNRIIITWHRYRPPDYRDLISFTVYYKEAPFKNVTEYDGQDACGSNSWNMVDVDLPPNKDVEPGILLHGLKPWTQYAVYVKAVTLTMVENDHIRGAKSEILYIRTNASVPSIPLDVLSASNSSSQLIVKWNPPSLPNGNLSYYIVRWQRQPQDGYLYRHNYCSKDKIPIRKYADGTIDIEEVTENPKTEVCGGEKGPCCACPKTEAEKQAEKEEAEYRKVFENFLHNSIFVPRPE
Sequence of Insulin-like growth factor 1 receptor (P08069 741-1367 limits assumed): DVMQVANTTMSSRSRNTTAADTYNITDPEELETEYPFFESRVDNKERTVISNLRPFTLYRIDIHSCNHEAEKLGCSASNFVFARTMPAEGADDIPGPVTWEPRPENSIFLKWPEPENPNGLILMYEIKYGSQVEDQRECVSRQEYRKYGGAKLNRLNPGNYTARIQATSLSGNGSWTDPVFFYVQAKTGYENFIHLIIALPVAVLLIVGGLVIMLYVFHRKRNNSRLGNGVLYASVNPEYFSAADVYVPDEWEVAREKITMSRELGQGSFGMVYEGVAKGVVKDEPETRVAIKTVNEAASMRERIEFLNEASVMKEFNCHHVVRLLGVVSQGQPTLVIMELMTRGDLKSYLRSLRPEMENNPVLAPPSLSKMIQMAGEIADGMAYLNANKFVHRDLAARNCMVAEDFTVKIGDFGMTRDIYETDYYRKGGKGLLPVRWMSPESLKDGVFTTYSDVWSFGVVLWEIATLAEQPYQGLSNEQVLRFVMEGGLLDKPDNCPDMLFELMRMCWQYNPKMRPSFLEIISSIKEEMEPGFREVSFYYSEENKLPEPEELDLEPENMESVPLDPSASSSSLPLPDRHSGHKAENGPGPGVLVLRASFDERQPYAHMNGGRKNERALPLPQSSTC
Sequence of Serine/threonine-protein kinase 3 (Q13188 whole entry): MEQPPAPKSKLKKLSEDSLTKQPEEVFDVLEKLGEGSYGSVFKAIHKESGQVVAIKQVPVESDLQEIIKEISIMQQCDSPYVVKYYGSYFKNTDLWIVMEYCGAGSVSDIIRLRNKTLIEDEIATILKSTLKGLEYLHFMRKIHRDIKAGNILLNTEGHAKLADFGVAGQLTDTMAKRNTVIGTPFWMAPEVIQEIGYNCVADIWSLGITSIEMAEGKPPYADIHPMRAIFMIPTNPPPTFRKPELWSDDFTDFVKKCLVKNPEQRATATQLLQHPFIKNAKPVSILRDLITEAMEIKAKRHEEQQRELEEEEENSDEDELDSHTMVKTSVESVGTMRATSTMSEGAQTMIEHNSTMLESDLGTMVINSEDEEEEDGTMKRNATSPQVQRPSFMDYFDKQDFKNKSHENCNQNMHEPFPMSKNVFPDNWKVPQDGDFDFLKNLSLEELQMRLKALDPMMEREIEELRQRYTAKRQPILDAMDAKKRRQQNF

In general, IC50 refers to the midpoint of a concentration-inhibition curve. High values mean lower potency, low ones higher potency. For `N#Cc1cccc(-c2c[nH]c3ncnc(N4CCOCC4)c23)c1`, the % of control in assay [1] and in assay [3] was 100% throughout. In addition, half-maximal inhibition in assay [2] (IC50) was put at 76 nM.

For `O=C(NOC[C@H](O)CO)c1ccc(F)c(F)c1Nc1ccc(I)cc1F`, the % of control in [4] is 77%; in [5], 93%; in assay [6], 100%.

Regarding `CC[C@@H]1[C@H](F)C(=O)N[C@@H]1COc1nccc2cc(C(N)=O)c(OC)cc12` [ZIMLOVISERTIB], the % of inhibition in assay [7] (at 0.01 µM) was 14.9%; in assay [7] (at 0.04 µM) it was 0%; in assay [7] (at 0.2 µM), -4.2%; in [7] (at 1 µM), 14.1%; in [7] (at 5 µM), 18.6%; on Focal adhesion kinase 1, 3.3%.

In the case of `C=CC(=O)Nc1cccc(C(=O)Nc2ccc(Nc3cc(-c4[nH]c(SC)nc4C)ccn3)cc2)c1`, the % of control turned out to be 77% in assay [8] (at 1 µM); 46% in assay [8] (at 5 µM); 92% in assay [9] (at 1 µM); 86% in assay [9] (at 5 µM); 95% in assay [10] (at 1 µM); 90% in assay [10] (at 5 µM).

`CN(C)CCCOc1ccc(-c2cc(NCCCn3cccn3)nc(S(C)(=O)=O)n2)cc1` yielded a dTM in assay [11] of less than 2 K.

The compound `Nc1cnc(N2CCc3cc(S(=O)(=O)Nc4c(F)cc(Cl)cc4F)cc(N4CCCC4=O)c32)nc1` [TP-020n] showed a % of control in assay [12] of 100%.

On to `COc1cc(N(C)c2ccnc3ccc(C(F)(F)F)cc23)cc(OC)c1OC`, for which the % binding in [13] was 82%.

These data come from ChEMBL document CHEMBL5465560, “Selectivity Literature for EUbOPEN Chemogenomic Library” (2024).
